Laboratory results published in ChEMBL document CHEMBL4680139, “Antiproliferative activity of diarylnaphthylpyrrolidine derivative via dual target inhibition” (Eur J Med Chem, 2020).

Tests used:
[1] = tested on: MCF7; assay: Antiproliferative activity against human MCF-7 cells assessed as proportion of dead cells at 12.5 ug/ml measured after 3 weeks by crystal violet staining based soft agar colony formation assay; type: functional; conditions: dose 12.5 µg/ml
[2] = tested on: MDA-MB-231; assay: Induction of apoptosis in human MDA-MB-231 cells assessed as proportion of necrotic cells at 10.42 uM measured after 24 hrs by Annexin V-FITC/propidium iodide staining based flow cytometry (reference value: 0.2%); type: functional
[3] = Toxicity in Swiss albino mouse assessed as RBC level in blood at 300 mg/kg, po administered as single dose (reference value: 10.56 +/- 1.22x10^6/mm3); type: organism-based; conditions: in vivo
[4] = tested on: MCF7; assay: Induction of cell cycle arrest in human MCF-7 cells assessed as accumulation at G0/G1 phase at 8.66 uM by propidium iodide staining based flow cytometry (reference value: 74.5%); type: functional
[5] = tested on: MDA-MB-231; assay: Induction of apoptosis in human MDA-MB-231 cells assessed as proportion of viable cells at 2.6 uM measured after 24 hrs by Annexin V-FITC/propidium iodide staining based flow cytometry (reference value: 99%); type: functional
[6] = tested on: MCF7; assay: Induction of apoptosis in human MCF-7 cells assessed as proportion of late apoptotic cells at 8.66 uM measured after 24 hrs by Annexin V- FITC/propidium iodide staining based flow cytometry (reference value: 0.1%); type: functional
[7] = tested on: MDA-MB-231; assay: Induction of apoptosis in human MDA-MB-231 cells assessed as proportion of early apoptotic cells at 2.6 uM measured after 24 hrs by Annexin V-FITC/propidium iodide staining based flow cytometry (reference value: 0.2%); type: functional
[8] = tested on: MCF7; assay: Induction of apoptosis in human MCF-7 cells assessed as proportion of early apoptotic cells at 8.66 uM measured after 24 hrs by Annexin V- FITC/propidium iodide staining based flow cytometry (reference value: 0%); type: functional
[9] = Inhibition of bovine brain tubulin polymerisation measured by turbidometric method; type: tissue-based, Bos taurus
[10] = tested on: MCF7; assay: Induction of apoptosis in human MCF-7 cells at 8.66 uM by propidium iodide staining based flow cytometry (reference value: 2.1%); type: functional
[11] = target: DNA topoisomerase 2-alpha (Homo sapiens) (UniProt P11388); assay: Inhibition of DNA-topoisomerase 2 in human MCF7 cells using kinetoplast DNA as substrate at 8.66 uM measured by ELISA; type: cell-based
[12] = Toxicity in Swiss albino mouse assessed as serum protein level at 300 mg/kg, po administered as single dose (reference value: 2.83 +/-0.09 mg/ml); type: organism-based; conditions: in vivo

Sequence of DNA topoisomerase 2-alpha (Homo sapiens) (P11388 whole entry): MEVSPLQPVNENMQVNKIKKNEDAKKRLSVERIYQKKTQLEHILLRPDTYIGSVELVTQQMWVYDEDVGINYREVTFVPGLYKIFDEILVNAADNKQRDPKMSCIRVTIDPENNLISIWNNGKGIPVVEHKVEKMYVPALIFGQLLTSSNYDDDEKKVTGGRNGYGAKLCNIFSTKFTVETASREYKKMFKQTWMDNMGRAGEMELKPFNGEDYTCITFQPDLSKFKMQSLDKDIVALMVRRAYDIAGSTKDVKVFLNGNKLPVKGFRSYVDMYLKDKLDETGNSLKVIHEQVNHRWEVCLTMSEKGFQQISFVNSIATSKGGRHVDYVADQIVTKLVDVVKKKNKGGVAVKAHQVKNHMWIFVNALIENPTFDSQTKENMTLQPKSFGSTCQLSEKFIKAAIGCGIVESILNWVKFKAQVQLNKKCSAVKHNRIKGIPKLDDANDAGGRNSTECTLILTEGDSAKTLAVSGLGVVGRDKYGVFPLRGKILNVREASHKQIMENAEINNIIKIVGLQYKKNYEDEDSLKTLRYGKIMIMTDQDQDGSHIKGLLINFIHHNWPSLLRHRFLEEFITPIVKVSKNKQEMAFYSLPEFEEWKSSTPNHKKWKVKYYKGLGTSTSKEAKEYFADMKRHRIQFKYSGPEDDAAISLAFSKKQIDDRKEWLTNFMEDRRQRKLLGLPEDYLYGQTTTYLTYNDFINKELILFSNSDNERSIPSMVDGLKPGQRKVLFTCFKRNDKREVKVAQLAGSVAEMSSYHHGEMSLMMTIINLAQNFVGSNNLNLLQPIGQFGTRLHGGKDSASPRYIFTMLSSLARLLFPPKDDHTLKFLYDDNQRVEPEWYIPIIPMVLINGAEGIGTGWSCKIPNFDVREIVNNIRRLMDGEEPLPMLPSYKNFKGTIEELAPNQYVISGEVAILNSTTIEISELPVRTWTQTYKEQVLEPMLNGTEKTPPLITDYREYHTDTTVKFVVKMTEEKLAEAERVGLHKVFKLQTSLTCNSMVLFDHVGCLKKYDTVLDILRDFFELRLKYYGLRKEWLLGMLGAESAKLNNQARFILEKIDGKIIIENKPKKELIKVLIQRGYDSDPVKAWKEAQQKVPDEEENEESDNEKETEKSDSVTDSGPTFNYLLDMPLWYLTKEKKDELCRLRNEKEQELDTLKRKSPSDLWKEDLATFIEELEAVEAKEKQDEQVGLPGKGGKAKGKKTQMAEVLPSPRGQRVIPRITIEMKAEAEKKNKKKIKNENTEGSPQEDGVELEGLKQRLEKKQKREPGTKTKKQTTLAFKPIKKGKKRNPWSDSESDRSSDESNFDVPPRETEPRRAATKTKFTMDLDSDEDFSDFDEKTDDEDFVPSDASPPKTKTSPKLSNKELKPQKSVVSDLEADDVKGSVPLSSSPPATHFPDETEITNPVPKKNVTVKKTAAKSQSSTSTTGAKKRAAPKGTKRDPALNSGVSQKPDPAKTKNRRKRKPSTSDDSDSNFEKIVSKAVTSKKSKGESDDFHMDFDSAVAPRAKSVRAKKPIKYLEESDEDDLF

COc1ccc(C(c2ccccc2OCCN2CCCC2)c2cccc3ccccc23)c(OC)c1OC (configuration not stated)
Activity [1]: 52.8% | Activity [2]: 14.7% | Activity [3]: 11.64 million/mm3 | Activity [4]: 66.5% | Activity [5]: 95.1% | Activity [6]: 25.8% | Activity [7]: 0.8% | Activity [8]: 0% | IC50 [9]: 5.65 µM | Activity [10]: 11.4% | inhibition [11]: 13.7% | Activity [12]: 2.87 mg/mL
